{"source": "patent US5420276A", "about": "“Analogs of oxetanyl purines and pyrimidines” (Abbott Laboratories, priority 1993, dated 1995)", "key": {"[1]": {"system": "Herpes Simplex Virus Type 1", "assay": "Neutral red dye uptake assay for antiviral activity, HSV-1 in Vero cells", "type": "cell-based", "conditions": "Human alphaherpesvirus 1, HSV-1, Vero, concentration at which 50% CPE would be observed, read-out: MIC50", "description": "(§1) Vero cell monolayers were harvested by trypsinization. The number of viable cells per ml. was determined by staining an aliquot with trypan blue and counting in a hemocytometer. Cell densities were adjusted in growth medium to contain 4×10^5 cells/mi. 96-well sterile tissue culture plates were seeded with 100 μl/well of the adjusted cell suspensions, i.e., 4×10^4 cells/well. Seeded plates were incubated overnight at 37° C. with CO2.\n(§2) After overnight incubation, monolayers were approximately confluent. The growth medium was removed and the monolayers in each cell were infected with 100 μl of virus diluted in maintenance medium to produce approximately 90% cytopathogenic effect (CPE) after 2 to 3 days incubation. The virus was allowed to adsorb for 1 hour at 37° C. with 4 to 6% CO2. Controls for cell growth were overlayed with virus-free maintenance medium. The maintenance medium containing residual virus was removed.\n(§3) The test compounds were dissolved and/or diluted in maintenance medium to the concentration desired for testing and were added to the wells of the plate. Aliquots (100 μl ) of each concentration were added to wells in replicate (duplicate or triplicate). Controls for virus activity were overlayed with drug-free maintenance medium. Replicate wells containing only maintenance medium served as controls for background absorbance levels.\nAfter incubation, the medium was removed from all the wells. 100 μl of neutral red solution was added to each well and the plate was incubated at 37° C. without CO2 for 2 hours. After the 2 hour incubation, the excess neutral red solution was removed. […]\nThe neutral red stain taken up by the viable cells was extracted by adding 100 μl/well of acidified methanol, pH 1.0. […] The amount of neutral red stain extracted into the methanol was quantified by determining the absorbance at a wavelength of 540 nm.\nThe percent CPE in virus controls was determined by the following formula: [formula]\nThe percent CPE in cells infected with virus and treated with the test compound was determined by the following formula: [formula] […]"}, "[2]": {"system": "HSV-1 (E-377)", "assay": "CPE inhibition assay (MTT), HSV-1 (E-377) in Vero cells", "type": "cell-based, herpes simplex virus type 1", "conditions": "Human alphaherpesvirus 1, inhibited CPE by 50%", "description": "Vero cells were pregrown as monolayers in wells of COSTAR 96-well tissue culture plates using suitable cell culture media. Stock viruses were pretitered according to the method of Reed and Muench (Amer. J. Hyg. 27 493 (1938)) and diluted in cell culture medium to yield 32 CCID50 (cell culture infectious dose, 50%) units per 0.1 mL. Antiviral assays were designed to test six concentrations of each compound, from cytotoxic to noncytotoxic levels, in triplicate against each of the challenge viruses in microtiter plate wells containing cell monolayers. To each of the replicate cell cultures were added 0.1 mL of the test-compound solution and 0.1 mL of virus suspension. Two compounds were evaluated per plate. The following controls were included:\n(1) Cell controls containing cells+medium;\n(2) Untreated, virus-infected cell controls;\n(3) Test-compound cytotoxicity controls containing uninfected, test-compound treated cells;\n(4) Test-compound color controls-test-compound+medium (no cells); and\n(5) Reagent (experiment medium) controls-medium only (no cells).\nThe covered plates were incubated at 37° C. in a humidified atmosphere containing 2% CO2. When cytopathogenic effect (CPE) in untreated virus control wells reached 100%, 20 μL of 3-(4,5-dimethyl-thiazol-2-yl)-2,5-diphenyl tetrazolium bromide (MTT) (dissolved in PBS at 5 mg/mL) was pipetted into each of the plate wells. The plates were incubated at 37° C. for six hours; then 40 μL of 30% SDS (in 0.02N HCl) was added to each well. After overnight incubation at 37° C., the blue color or the MTT formazan was measured spectrophotometrically at 570 nm. The optical density (OD) value of each culture is a function of the amount of formazan produced which is proportional to the number of viable cells. A computer program was utilized to calculate the percent (CPE) reciprocal of % CPE reduction) of the virus-infected wells and % cell viability of the uninfected test-compound control wells.\nThe IC50 value is the minimum test-compound concentration (μg/mL) that inhibited CPE by 50% calculated by using a regression analysis program for semilog curve fitting. The TC25 value is the minimum test-compound concentration (μg/mL) that reduced cell viability by 25%."}, "[3]": {"assay": "in vitro", "type": "cell-based, African green monkey", "conditions": "monkey, vero cells", "description": "as §1, §2, §3\nAfter incubation, the medium was removed from all the wells. 100 μl of neutral red solution was added to each well and the plate was incubated at 37° C. without CO2 for 2 hours. After the 2 hour incubation, the excess neutral red solution was removed. The plates were washed with 100 μl/well of PBS, pH 7.2 and then the PBS was removed.\nThe neutral red stain taken up by the viable cells was extracted by adding 100 μl/well of acidified methanol, pH 1.0. (The acidified methanol fixed the cells to the well). The plate was allowed to stand at room temperature for at least 15 minutes to allow for maximum extraction. The amount of neutral red stain extracted into the methanol was quantified by determining the absorbance at a wavelength of 540 nm. […]"}}, "data": [{"smiles": "O=c1[nH]c(=O)n([C@@H]2O[C@H](CO)[C@H]2CO)cc1C=CBr", "note": "[Example 44, 1-([2'R, 3'R, 4'S]-3',4'-Bis(hydroxymethyl)-2'-oxetanyl)-5-(2-bromo-1-vinyl)uracil]", "values": [{"measurement": "EC50", "setting": "[1]", "result": 0.09, "unit": "µg/mL"}, {"measurement": "IC50", "setting": "[2]", "result": 0.072, "unit": "µg/mL"}, {"measurement": "CC50", "setting": "[3]", "result": "> 1000", "unit": "µg/mL"}]}]}
